Experimental data taken from US11911358B2, “Dicarboxylic acid esters for inducing an analgesic effect” (NEW FRONTIER LABS, LLC, priority 2020, dated 2024).

Columns and labels:
EpiDerm tissues [1] = assay: EpiDerm bioassay: cytokine, chemokine and growth factor levels by multiplexed immunoassay after croton oil insult; type: cell-based, human; conditions: 24 hours; for G-CSF, percentage of the control / GM-CSF, percentage of the control / IL-1ra, percentage of the control / IL-10, percentage of the control / IL-13, percentage of the control / Leptin, percentage of the control / PGE2, percentage of the control / IL-4, percentage of the control: EpiDerm + 0.1% croton oil, percent difference vs croton oil alone; for IL-4, percentage of the control: 25% azelaic acid Na salt, 1% salicylic acid Na salt, 1% green tea extract, 1 μg/mL doxycycline hyclate (doxorubicin), 1% 4-ethoxybenzaldehyde, 0.025% all-trans retinoic acid
Description: Multiplexed immunoassays: […] Izbicka, et al., Cancer Genomics Proteomics (2012) 9(1):27-35]. Multiplexed immunoassays were performed using Luminex 100 IS System (Luminex Corporation, Austin, TX). Analyte concentrations were calculated from the standard curves using Bio-Plex Manager 4.1.1 (Bio-Rad Laboratories, Hercules, CA). EpiDerm Bioassays: The EpiDermTM 3-Dimensional Skin Model was purchased from MatTek Corporation (Ashland, MA). […] Conditioned media were collected, the remaining cells were homogenized on ice in the presence of protease and phosphatase inhibitors, and the lysates were clarified by centrifugation. The media and cell lysates were snap frozen at -70° C. Proteins were resolved by gel electrophoresis and visualized in immunoblots with human-specific antibodies to inducible nitric oxide synthase (iNOS), S-nitrosocysteine, and superoxide dismutase 2 (all from Abcam, Cambridge, MA). […] Croton oil (a chemical irritant) was used as a control. The results are shown as percent difference in marker levels in tissues treated with the test articles and those treated with croton oil alone. (Table 1). […] This pattern of tandem upregulation of examined markers in concert with downregulation of PGE2 was unique for DEA and was not observed with any other test article.

PBMCs = assay: Membrane fluidity measurement (pyrenedecanoic acid excimer fluorescence); type: cell-based, human; conditions: 0.5% DEA
Description: Isolation of human peripheral blood mononuclear cells: Fresh human peripheral blood mononuclear cells (PBMC) specimens were obtained from healthy volunteers. The blood was collected into BD Vacutainer CPT Cell Preparation Tubes (Beckton Dickinson, Franklin Lakes, NJ) and centrifuged at 1,500×g at room temperature and PBMCs were isolated according to supplier's protocol. Cell counts and viability assessment using trypan blue exclusion were measured using hemocytometer. Membrane fluidity measurements: Membrane fluidity was measured using Membrane Fluidity Kit (PN […], Marker Gene Technologies, Eugene, OR). […] The fluorescence of the excimer (excitation at 355 nm, emission at 460 nm) was corrected for the monomer (excitation at 355 nm, emission at 400 nm). The inventors of the present disclosure have shown that altered membrane protein function with a U-shaped dose response. […] Physiological consequences of DEA membrane fluidizing activity were further investigated in human plasmacytoid dendritic cells, which express multiple PRRs including TLRs, NOD and dectin-1 receptors. Human plasmacytoid dendritic cells were stimulated with the receptor agonists alone or in combination with 0.5% DEA.

EpiDerm tissues [2] = assay: EpiDerm croton oil irritant toxicity: proliferation and viability assays, microscopic inspection; type: cell-based, human; conditions: 25% DEA, 0.1% croton oil
Description: Cell proliferation and cytotoxicity assays: CellTiter 96 Non-Radioactive Cell Proliferation Assay (MTT), CellTiter 96 AQueous One Solution Cell Proliferation Assay (MTS) and CellTiter-Glo Luminescent Cell Viability (ATP) kits were purchased from Promega (Madison, WI). Protein concentration was measured using Micro BCA protein assay kit (Pierce Biotechnology, Rockford, IL). EpiDerm Bioassays: The EpiDerm™ 3-Dimensional Skin Model was purchased from MatTek Corporation (Ashland, MA). […] Conditioned media were collected, the remaining cells were homogenized on ice in the presence of protease and phosphatase inhibitors, and the lysates were clarified by centrifugation. The media and cell lysates were snap frozen at −70° C. Proteins were resolved by gel electrophoresis and visualized in immunoblots with human-specific antibodies to inducible nitric oxide synthase (iNOS), S-nitrosocysteine, and superoxide dismutase 2 (all from Abcam, Cambridge, MA). […] Croton oil (a chemical irritant) was used as a control. The results are shown as percent difference in marker levels in tissues treated with the test articles and those treated with croton oil alone. (Table 1). […] This pattern of tandem upregulation of examined markers in concert with downregulation of PGE2 was unique for DEA and was not observed with any other test article.

human PBMCs = type: cell-based; conditions: 0.5% DEA, confocal microscopy (FIG. 3)
[3] = tested on: human plasmacytoid dendritic cells; assay: ATP release and signaling with PRR agonists in plasmacytoid dendritic cells; type: cell-based; conditions: 0.5% DEA, 24 hours
Description: Cell proliferation and cytotoxicity assays: CellTiter 96 Non-Radioactive Cell Proliferation Assay (MTT), CellTiter 96 AQueous One Solution Cell Proliferation Assay (MTS) and CellTiter-Glo Luminescent Cell Viability (ATP) kits were purchased from Promega (Madison, WI). Protein concentration was measured using Micro BCA protein assay kit (Pierce Biotechnology, Rockford, IL).
Pathogen-associated molecular pattern receptor agonist studies: PRR agonist kits; human Toll-like receptor (TLR1-9; n=9 agonists), nucleotide oligomerization domain (NOD) NOD1/NOD2 (n=10 agonists, denoted n1, n2, . . . , n10) and dectin-1 (a single agonist) were purchased from InvivoGen, San Diego, CA Plasmacytoid human dendritic cells (MatTek Corporation, Ashland, MA) were diluted to 1.6×10^5 cells/mL and incubated with the agonists at the concentrations in the middle ranges recommended by the supplier in the absence of DEA or with 0.5% DEA for 24 hours. The levels of measured analytes were normalized to the numbers of viable cells.
The inventors of the present disclosure have shown that altered membrane protein function with a U-shaped dose response. At the concentration of 0.5% DEA increased membrane fluidity by 18% above the cholesterol control level. Physiological consequences of DEA membrane fluidizing activity were further investigated in human plasmacytoid dendritic cells, which express multiple PRRs including TLRs, NOD and dectin-1 receptors. […]
Human plasmacytoid dendritic cells (1.6×10^5/ml) were exposed to 20 different PRR agonists alone at the concentrations within physiological ranges of each agonist or in the presence of 0.5% DEA for 24 hours. The results are expressed as the ratios of secreted ATP from the cells treated with the PRR receptor agonists and DEA (treatment groups) to the levels of ATP secreted by the cells treated with the agonists alone (control groups). […] Extracellular levels were measured, and the results were expressed as the ratios of released ATP from the cells+receptor agonist+DEA to the ATP from the cells+receptor agonist alone.

Balb/c mice = assay: Hot plate test, hind limb response latency; type: in vivo; conditions: 100% (neat) DEA topical to hind limb 5 minutes before test, 42° C., male mice; vs untreated control, p=0.03
Description: In vivo studies: Animal studies and all procedures were performed in compliance with the Animal Welfare Act Regulations (9 CFR 3) and the NIH guidelines for the care and use of laboratory animals at New Frontier Labs LLC, San Antonio, TX Both male and female Balb/c mice 8-10 weeks old weighing approximately 25 g were purchased from Taconic Farms (Hudson, NY). Animals were acclimatized for at least 72 hours after delivery. Prior to experiments the animals were randomized into treatment and control groups. For the assessment of nociceptive effect of DEA, only male mice were used (n=8 per group). The hot plate test was performed at a constant temperature of 42° C. as described in S. Hunskaar, et al., Eur. J. Pharmacol. 1985; 111(2):221-6, which is incorporated herein by reference. DEA was administered neat (100%) or diluted in ethanol (vehicle) to the hind limb. The treatments were administered 5 minutes prior to the heat test. The time between the heat exposure to the first incidence of animal licking the hind paw was measured with a stopwatch.
Statistical analysis: Statistical analysis was done using Student t statistic; p values <0.05 were considered significant. All samples/data were included in the analysis. Continuously distributed outcomes were summarized with the mean and standard deviation. […]

| SMILES | G-CSF, percentage of the control (EpiDerm tissues [1]) [%] | GM-CSF, percentage of the control (EpiDerm tissues [1]) [%] | IL-1ra, percentage of the control (EpiDerm tissues [1]) [%] | IL-10, percentage of the control (EpiDerm tissues [1]) [%] | IL-13, percentage of the control (EpiDerm tissues [1]) [%] | Leptin, percentage of the control (EpiDerm tissues [1]) [%] | PGE2, percentage of the control (EpiDerm tissues [1]) [%] | IL-4, percentage of the control (EpiDerm tissues [1]; 25% DEA) [%] | increase of membrane fluidity above the cholesterol control level (PBMCs) [%] | tissue integrity as evaluated by microscopic inspection (EpiDerm tissues [2]) | croton oil irritant toxicity in proliferation and viability assays (EpiDerm tissues [2]; 24 hours) | foci of enhanced cholera toxin B subunit fluorescence on plasma membranes (human PBMCs) | effect on pro-inflammatory markers among 57 examined cytokines, chemokines and growth factors (EpiDerm tissues [1]; 25% DEA, 0.1% croton oil) | effect on ATP signaling with NOD receptor ligands n9 and n10 [3] | cellular signaling from all examined PRR ([3]; TLR, NOD, dectin-1 agonists) | ratio of released ATP, cells+receptor agonist+DEA to cells+receptor agonist alone ([3]; all PRR agonists except NOD ligands n9 and n10 (FIG. 1)) | decrease of heat sensitivity (hot plate response latency) (Balb/c mice) [%] |
| --- | --- | --- | --- | --- | --- | --- | --- | --- | --- | --- | --- | --- | --- | --- | --- | --- | --- |
| CCOc1ccc(C=O)cc1 [4-ethoxybenzaldehyde] | 340 | −26 | 34 | 471 | 34 | 39 | 4 | 80 |  |  |  |  |  |  |  |  |  |
| O=C(O)CCCCCCCC(=O)O [Azelaic acid, azelaic acid] | −100 | −16 | 18 | 152 | −4 | 41 | −1 | 40 |  |  |  |  |  |  |  |  |  |
| CCOC(=O)CCCCCCCC(=O)OCC [DEA, diethyl azelate] | 561 | 280 | 33 | 200 | 112 | 51 |  | 600 | 18 | protected tissue integrity | nullified croton oil irritant toxicity | no foci of enhanced fluorescence were detectable | downregulated most of the pro-inflammatory markers | no apparent effect | downregulated cellular signaling from all examined PRR | < 1 | 33 |
| COc1cccc2c1C(=O)c1c(O)c3c(c(O)c1C2=O)C[C@@](O)(C(=O)CO)C[C@@H]3O[C@H]1C[C@H](N)[C@H](O)[C@H](C)O1 [Doxorubicin, doxorubicin] | 0 | −3 | 15 | 214 | −38 | 116 | −2 | 80 |  |  |  |  |  |  |  |  |  |
| CC1=C(/C=C/C(C)=C/C=C/C(C)=C/C(=O)O)C(C)(C)CCC1 [Retinoic acid, all-trans retinoic acid] | 360 | −39 | 20 | 369 | −19 | 36 | 4 | 100 |  |  |  |  |  |  |  |  |  |
| O=C(O)c1ccccc1O [Salicylic acid, salicylic acid] | 640 | −7 | 15 | 257 | −46 | 202 | 5 | 40 |  |  |  |  |  |  |  |  |  |
